Laboratory results taken from patent US20180289008A1, “METHODS FOR WILDFIRE CONTROL, INVASIVE PLANT CONTROL, AND RESIDUAL CONTROL OF INVASIVE PLANTS” (priority 2017, published 2018).
Several values for one entry are separate records, joined by “and”; a condition that tells them apart may be missing. Equal values may be shown once. Read-outs that look alike come from different tables or passages of the source.

Legend:
[1] = pH 7; cited from earlier work
all nine weed species = assay: Greenhouse pre-emergence dose-response bioassay, across all nine weed species; type: in vivo; conditions: averaging across all nine weed species
From the text: A greenhouse experiment was designed to determine if the extended control of Dalmatian toadflax and downy brome provided by indaziflam in the field was due to increased residual seedling control. This experiment was designed to compare indaziflam's pre-emergence efficacy to the currently recommended herbicides (aminocyclopyrachlor and aminopyralid) for annual, biennial, and perennial weed control in non-crop areas. […] This allows for direct comparisons between herbicides on an active ingredient basis for aminopyralid, aminocyclopyrachlor, and indaziflam. […]
(§1) Plants were harvested at the soil surface approximately 4 to 5 week-after-treatment (WAT) depending on the growth stage of each species. Weights were recorded after samples were dried for 5 days at 60° C. Percent dry weight reduction was calculated relative to the non-treated control plants for each treatment.
Data from the greenhouse dose-response experiment were first analyzed using the PROC MIXED method in SAS 9.3 with treatment as a fixed effect and experiment and replicate as random effects (SAS Institute 2010). […] The herbicide concentrations resulting in 50% reduction in plant biomass (GR50) compared to the non-treated control were determined for each invasive weed species using four-parameter log-logistic regression. […]

[2] = test system: Common mullein (Verbascum thapsus); assay: Greenhouse pre-emergence dose-response bioassay (GR50); type: in vivo
From the text: (§2) A greenhouse experiment was designed to determine if the extended control of Dalmatian toadflax and downy brome provided by indaziflam in the field was due to increased residual seedling control. This experiment was designed to compare indaziflam's pre-emergence efficacy to the currently recommended herbicides (aminocyclopyrachlor and aminopyralid) for annual, biennial, and perennial weed control in non-crop areas. […] This allows for direct comparisons between herbicides on an active ingredient basis for aminopyralid, aminocyclopyrachlor, and indaziflam.
(§3) For the greenhouse bioassay, seeds were planted at a constant depth of 0.5 cm in 13- by 9- by 6-cm plastic containers, filled with an Otero sandy clay loam field soil (Coarse-loamy, mixed (calcareous), mesic Aridic Ustorthents) with 3.9% OM and pH 7.7. Seeding densities were adjusted based on germinability to reach a target density of 40 plants/pot. Plants were maintained in a greenhouse with a 25/20° C. day/night temperature with natural light supplemented with high-intensity discharge lamps to give a 15-h photoperiod. Plants were sub-irrigated as needed and misted overhead daily to reduce soil crusting.
(§4) The greenhouse experiment was a completely randomized design with a factorial of seven herbicide rates and a non-treated control with three replicates per treatment. The experiments were conducted at two different times. A preliminary greenhouse study was conducted for each herbicide and species to determine a range of doses that would best fit a logistic regression. It is not unusual for both pre-emergence and post-emergence herbicides to provide control at lower than labeled rates, e.g., 0.5-560 g ai ha^−1 (aminocyclopyrachlor), 0.9-224 g ai ha^−1 (aminopyralid), and 0.05-11.7 g ai ha^−1 (indaziflam) in the greenhouse with ideal environmental conditions, so it was not surprising that herbicide doses for the regression analysis were much lower than recommended field use rates. Herbicides were applied pre-emergence using a Generation III research track sprayer (DeVries Manufacturing, Hollandale, Minn.) equipped with a TeeJet 8002 EVS flat-fan spray nozzle (TeeJet Spraying Systems Co., Wheaton, Ill.) at 187 L·ha-1 at 172 kPa.
as §1
(§5) Data from the greenhouse dose-response experiment were first analyzed using the PROC MIXED method in SAS 9.3 with treatment as a fixed effect and experiment and replicate as random effects (SAS Institute 2010). Based on a non-significant homogeneity of variance (ANOVA) and experiment-by-herbicide rate interaction, results from the repeated experiments were pooled. The treatment effect was significant, therefore, nonlinear regression in Graphpad Prism 7.00 (GraphPad Software, La Jolla Calif. USA) was used to describe the response of the nine weed species to aminocyclopyrachlor, aminopyralid, and indaziflam. The herbicide concentrations resulting in 50% reduction in plant biomass (GR50) compared to the non-treated control were determined for each invasive weed species using four-parameter log-logistic regression. The equation used to regress herbicide concentration with percent reduction in plant dry biomass as compared to the non-treated control was:
(§6) where C and D represent the lower and upper limits of the dose-response curve, respectively, and b represents the slope of the best-fitting curve through the GR50 value. For curve fitting and GR50 estimation, the model was constrained to a maximum of 100 and minimum of 0. Mean separation of herbicide GR50 values were analyzed by Fisher's Protected LSD test at the 5% level of probability. […]

[3] = test system: Marestail (Conyza Canadensis); assay: as above; type: in vivo
From the text: as §2, §3, §4, §1, §5, §6

[4] = test system: downy brome (Bromus tectorum); assay: as above; type: in vivo
From the text: as §2, §3, §4, §1, §5, §6

[5] = test system: Halogeton (Halogeton glomeratus); assay: as above; type: in vivo
From the text: as §2, §3, §4, §1, §5, §6

[6] = test system: Diffuse knapweed (Centaurea diffusa); assay: as above; type: in vivo
From the text: as §2, §3, §4, §1, §5, §6

[7] = test system: Musk thistle (Carduus nutans); assay: as above; type: in vivo
From the text: as §2, §3, §4, §1, §5, §6

[8] = test system: Dalmatian toadflax (Linaria dalmatica); assay: as above; type: in vivo
From the text: as §2, §3, §4, §1, §5, §6

[9] = test system: Common teasel (Dipsacus fullonum); assay: as above; type: in vivo
From the text: as §2, §3, §4, §1, §5, §6

[10] = test system: Curly dock (Rumex crispus); assay: as above; type: in vivo
From the text: as §2, §3, §4, §1, §5, §6

## Cc1ccc2c(c1)[C@H](Nc1nc(N)nc(C(C)F)n1)[C@@H](C)C2 (mixture of isomers) [Indaziflam, N2-[(1R,2S)-2,3-dihydro-2,6-dimethyl-1H-inden-1-yl]-6-[(1RS)-1-fluoroethyl]-1,3,5-triazine-2,4-diamine]
[1]
  Log Kow: 2.8
All nine weed species
  times more active than aminocyclopyrachlor: 29
  times more active than aminopyralid: 52
[2]
  GR50 ratio Aminocyclopyrachlor/Indaziflam: 44.57
  GR50 ratio Aminopyralid/Indaziflam: 106 and 106.43
[2]; pre-emergence
  GR50 (herbicide dose resulting in 50% dry biomass reduction): 0.07 a g ai ha^−1
[3]
  GR50 ratio Aminocyclopyrachlor/Indaziflam: 12.29
  GR50 ratio Aminopyralid/Indaziflam: 5 and 4.71
[3]; pre-emergence
  GR50 (herbicide dose resulting in 50% dry biomass reduction): 0.17 a g ai ha^−1
[4]
  GR50 ratio Aminocyclopyrachlor/Indaziflam: 144.62
  GR50 ratio Aminopyralid/Indaziflam: 98.72
[4]; listed as indaziflam
  GR50 ratio Aminocyclopyrachlor/Indaziflam: 125
  GR50 ratio Aminopyralid/Indaziflam: 99
[4]; pre-emergence
  GR50 (herbicide dose resulting in 50% dry biomass reduction): 0.39 a g ai ha^−1
[5]
  GR50 ratio Aminocyclopyrachlor/Indaziflam: 2.89
  GR50 ratio Aminopyralid/Indaziflam: 9 and 8.64
[5]; pre-emergence
  GR50 (herbicide dose resulting in 50% dry biomass reduction): 0.36 a g ai ha^−1
[6]
  GR50 ratio Aminocyclopyrachlor/Indaziflam: 10.69
  GR50 ratio Aminopyralid/Indaziflam: 4 and 4.31
[6]; pre-emergence
  GR50 (herbicide dose resulting in 50% dry biomass reduction): 0.58 a g ai ha^−1
[7]
  GR50 ratio Aminocyclopyrachlor/Indaziflam: 3.79
  GR50 ratio Aminopyralid/Indaziflam: 0.94
[7]; pre-emergence
  GR50 (herbicide dose resulting in 50% dry biomass reduction): 0.33 a g ai ha^−1
[8]
  GR50 ratio Aminocyclopyrachlor/Indaziflam: 19.33
  GR50 ratio Aminopyralid/Indaziflam: 246.67
[8]; listed as indaziflam
  GR50 ratio Aminocyclopyrachlor/Indaziflam: 19
  GR50 ratio Aminopyralid/Indaziflam: 247
[8]; pre-emergence
  GR50 (herbicide dose resulting in 50% dry biomass reduction): 0.06 a g ai ha^−1
[9]
  GR50 ratio Aminocyclopyrachlor/Indaziflam: 5.18
  GR50 ratio Aminopyralid/Indaziflam: 0.56
[9]; pre-emergence
  GR50 (herbicide dose resulting in 50% dry biomass reduction): 1.33 b g ai ha^−1
[10]
  GR50 ratio Aminocyclopyrachlor/Indaziflam: 19.36
  GR50 ratio Aminopyralid/Indaziflam: 1.14
[10]; pre-emergence
  GR50 (herbicide dose resulting in 50% dry biomass reduction): 1.10 a g ai ha^−1
